Test system: Transport facilitation protein genes
Assay: DNA chip mRNA expression in yeast, transport facilitation protein genes (Table 5)
Format: cell-based, Saccharomyces cerevisiae S288C
Procedure, shortened: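 Expression change after 2 h toxicant exposure (growth-inhibiting, sub-lethal) of log-phase S. cerevisiae S288C at 25° C. Oligo-dT-purified mRNA was labeled with Cy3-dUTP or Cy5-dUTP and hybridized >12 h at 65° C. to a genome-wide chip; ratio of scanned fluorescence to control.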

COc1cc(CNC(=O)CCCCC=CC(C)C)ccc1O [(12), 8-methyl-N-vanillyl-6-nonenamide]
The level of expressed mRNA in the presence of chemical substance/The level of expressed mRNA in the absence of chemical substance (yeast gene YBL030C): 0.9 | The level of expressed mRNA in the presence of chemical substance/The level of expressed mRNA in the absence of chemical substance (yeast gene YBL099W): 1.0 | The level of expressed mRNA in the presence of chemical substance/The level of expressed mRNA in the absence of chemical substance (yeast gene YBR052C): 1.3 | The level of expressed mRNA in the presence of chemical substance/The level of expressed mRNA in the absence of chemical substance (yeast gene YBR068C): 0.8 | The level of expressed mRNA in the presence of chemical substance/The level of expressed mRNA in the absence of chemical substance (yeast gene YBR127C): 0.9 | The level of expressed mRNA in the presence of chemical substance/The level of expressed mRNA in the absence of chemical substance (yeast gene YBR132C): 1.0 | The level of expressed mRNA in the presence of chemical substance/The level of expressed mRNA in the absence of chemical substance (yeast gene YBR207W): 0.9 | The level of expressed mRNA in the presence of chemical substance/The level of expressed mRNA in the absence of chemical substance (yeast gene YBR293W): 1.0 | The level of expressed mRNA in the presence of chemical substance/The level of expressed mRNA in the absence of chemical substance (yeast gene YBR294W): 1.0 | The level of expressed mRNA in the presence of chemical substance/The level of expressed mRNA in the absence of chemical substance (yeast gene YBR295W): 0.9 | The level of expressed mRNA in the presence of chemical substance/The level of expressed mRNA in the absence of chemical substance (yeast gene YBR298C): 1.1 | The level of expressed mRNA in the presence of chemical substance/The level of expressed mRNA in the absence of chemical substance (yeast gene YCL025C): 1.1 | The level of expressed mRNA in the presence of chemical substance/The level of expressed mRNA in the absence of chemical substance (yeast gene YCL038C): 1.3 | The level of expressed mRNA in the presence of chemical substance/The level of expressed mRNA in the absence of chemical substance (yeast gene YCR024C-A): 1.0 | The level of expressed mRNA in the presence of chemical substance/The level of expressed mRNA in the absence of chemical substance (yeast gene YCR037C): 0.7 | The level of expressed mRNA in the presence of chemical substance/The level of expressed mRNA in the absence of chemical substance (yeast gene YCR098C): 1.3 | The level of expressed mRNA in the presence of chemical substance/The level of expressed mRNA in the absence of chemical substance (yeast gene YDL128W): 0.9 | The level of expressed mRNA in the presence of chemical substance/The level of expressed mRNA in the absence of chemical substance (yeast gene YDL198C): 1.2 | The level of expressed mRNA in the presence of chemical substance/The level of expressed mRNA in the absence of chemical substance (yeast gene YDL210W): 0.8 | The level of expressed mRNA in the presence of chemical substance/The level of expressed mRNA in the absence of chemical substance (yeast gene YDL245C): 1.0 | The level of expressed mRNA in the presence of chemical substance/The level of expressed mRNA in the absence of chemical substance (yeast gene YDR038C): 0.7 | The level of expressed mRNA in the presence of chemical substance/The level of expressed mRNA in the absence of chemical substance (yeast gene YDR039C): 0.8 | The level of expressed mRNA in the presence of chemical substance/The level of expressed mRNA in the absence of chemical substance (yeast gene YDR086C): 0.7 | The level of expressed mRNA in the presence of chemical substance/The level of expressed mRNA in the absence of chemical substance (yeast gene YDR270W): 1.0 | The level of expressed mRNA in the presence of chemical substance/The level of expressed mRNA in the absence of chemical substance (yeast gene YDR298C): 1.1 | The level of expressed mRNA in the presence of chemical substance/The level of expressed mRNA in the absence of chemical substance (yeast gene YDR342C): 1.0 | The level of expressed mRNA in the presence of chemical substance/The level of expressed mRNA in the absence of chemical substance (yeast gene YDR343C): 1.0 | The level of expressed mRNA in the presence of chemical substance/The level of expressed mRNA in the absence of chemical substance (yeast gene YDR345C): 1.4 | The level of expressed mRNA in the presence of chemical substance/The level of expressed mRNA in the absence of chemical substance (yeast gene YDR387C): 0.9 | The level of expressed mRNA in the presence of chemical substance/The level of expressed mRNA in the absence of chemical substance (yeast gene YDR497C): 0.9 | The level of expressed mRNA in the presence of chemical substance/The level of expressed mRNA in the absence of chemical substance (yeast gene YEL027W): 0.9 | The level of expressed mRNA in the presence of chemical substance/The level of expressed mRNA in the absence of chemical substance (yeast gene YEL063C): 1.1 | The level of expressed mRNA in the presence of chemical substance/The level of expressed mRNA in the absence of chemical substance (yeast gene YEL065W): 1.7 | The level of expressed mRNA in the presence of chemical substance/The level of expressed mRNA in the absence of chemical substance (yeast gene YER053C): 1.7 | The level of expressed mRNA in the presence of chemical substance/The level of expressed mRNA in the absence of chemical substance (yeast gene YER119C): 0.7 | The level of expressed mRNA in the presence of chemical substance/The level of expressed mRNA in the absence of chemical substance (yeast gene YFL011W): 0.9 | The level of expressed mRNA in the presence of chemical substance/The level of expressed mRNA in the absence of chemical substance (yeast gene YFL041W): 1.1 | The level of expressed mRNA in the presence of chemical substance/The level of expressed mRNA in the absence of chemical substance (yeast gene YFL050C): 0.9 | The level of expressed mRNA in the presence of chemical substance/The level of expressed mRNA in the absence of chemical substance (yeast gene YFL054C): 1.2 | The level of expressed mRNA in the presence of chemical substance/The level of expressed mRNA in the absence of chemical substance (yeast gene YFL055W): 0.9 | The level of expressed mRNA in the presence of chemical substance/The level of expressed mRNA in the absence of chemical substance (yeast gene YGL006W): 0.9 | The level of expressed mRNA in the presence of chemical substance/The level of expressed mRNA in the absence of chemical substance (yeast gene YGL008C): 2.4 | The level of expressed mRNA in the presence of chemical substance/The level of expressed mRNA in the absence of chemical substance (yeast gene YGL104C): 1.1 | The level of expressed mRNA in the presence of chemical substance/The level of expressed mRNA in the absence of chemical substance (yeast gene YGL167C): 1.1 | The level of expressed mRNA in the presence of chemical substance/The level of expressed mRNA in the absence of chemical substance (yeast gene YGL255W): 0.7 | The level of expressed mRNA in the presence of chemical substance/The level of expressed mRNA in the absence of chemical substance (yeast gene YGR055W): 0.9 | The level of expressed mRNA in the presence of chemical substance/The level of expressed mRNA in the absence of chemical substance (yeast gene YGR065C): 0.5 | The level of expressed mRNA in the presence of chemical substance/The level of expressed mRNA in the absence of chemical substance (yeast gene YGR082W): 0.8 | The level of expressed mRNA in the presence of chemical substance/The level of expressed mRNA in the absence of chemical substance (yeast gene YGR096W): 0.8 | The level of expressed mRNA in the presence of chemical substance/The level of expressed mRNA in the absence of chemical substance (yeast gene YGR138C): 0.6 | The level of expressed mRNA in the presence of chemical substance/The level of expressed mRNA in the absence of chemical substance (yeast gene YGR191W): 0.7 | The level of expressed mRNA in the presence of chemical substance/The level of expressed mRNA in the absence of chemical substance (yeast gene YGR197C): 1.2 | The level of expressed mRNA in the presence of chemical substance/The level of expressed mRNA in the absence of chemical substance (yeast gene YGR224W): 0.6 | The level of expressed mRNA in the presence of chemical substance/The level of expressed mRNA in the absence of chemical substance (yeast gene YGR260W): 0.6
